The results in this text go back to ChEMBL document CHEMBL1201862, “PubChem BioAssay data set” (2004).

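Growth conditions: 96-well plates. Treatment: test compound, 48 hours, 5 concentrations. Analysis: linear interpolation between bracketing concentrations; unreached endpoints set to highest concentration. GI50 = concentration required for 50% inhibition of growth.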 Active and inactive are the calls of the source. Rule as the data show it: active = GI50 up to about 1.1 µM and inactive = higher. Non-standard residues stand in square brackets, D forms with d. Residues, ends and D or L forms follow the SMILES beside them. *: point of attachment. Ac5c = NC1(C(=O)O)CCCC1; Boc = CC(C)(C)OC(=O)*; tBu = CC(C)(C)* Where only a bound is given, the exact number is not on record here.

Among the test systems are RXF 393; UO-31; SK-MEL-2; KM12; DU-145; OVCAR-4; OVCAR-8; IGROV-1; 786-0; HCT-116; PC-3; HOP-92; COLO 205; SW-620; MOLT-4; SF-268; SF-539; NCI-H522; SK-MEL-5; A498.
Common to all, as to assay: NCI tumour cell line growth inhibition, 48 h

For `NC(=O)NCCCC(NC(=O)OCCCCCCn1ccc(=O)[nH]c1=O)C(=O)O` (stereo not given), the GI50 in the assay with RXF 393, in the assay with UO-31, in the assay with SK-MEL-2, in the assay with KM12, in the assay with DU-145 and in the assay with OVCAR-4 was > 100 µM (inactive) each time. The GI50 in the assay with OVCAR-8, with IGROV-1, in the assay on 786-0, in the assay with HCT-116, with PC-3 and in the assay with HOP-92 was > 100 µM (inactive) throughout. Further, the GI50 with COLO 205, with SW-620, with MOLT-4, in the assay on SF-268 and with SF-539 was > 100 µM (inactive) each time.

In the case of `Cc1ccc(S(=O)(=O)NC(=O)N[C@@H](Cc2c[nH]cn2)C(=O)O)cc1`, the GI50 in the assay on RXF 393, with UO-31, in the assay on SK-MEL-2, in the assay with KM12, with DU-145 and in the assay on OVCAR-4 was > 100 µM (inactive) in each case. In addition, the GI50 in the assay on OVCAR-8, with IGROV-1, in the assay on 786-0, with NCI-H522, with HCT-116 and in the assay on SK-MEL-5 was > 100 µM (inactive) in each case. Further, the GI50 in the assay with PC-3, with HOP-92, in the assay with COLO 205, in the assay on SW-620, in the assay with MOLT-4 and in the assay on SF-268 was > 100 µM (inactive) in each case. Besides, the GI50 with SF-539 is > 100 µM (inactive).

With `C/C1=C/C[C@@H](/C(C)=C/c2csc(C)n2)OC(=O)C[C@H](O)C(C)(C)C(=O)[C@H](C)[C@@H](O)[C@@H](C)CCC1` [EPOTHILONE D], the GI50 with RXF 393 is < 0.0001 µM (active); in the assay on UO-31, < 0.0001 µM (active); in the assay on SK-MEL-2 it was < 0.0001 µM (active); in the assay on KM12, < 0.0001 µM (active); in the assay with DU-145 it was < 0.0001 µM (active); in the assay with OVCAR-4 it was 0.137 µM (active). Also, the GI50 in the assay with OVCAR-8, in the assay on IGROV-1, in the assay on 786-0, in the assay with NCI-H522, with HCT-116 and in the assay on SK-MEL-5 was < 0.0001 µM (active) throughout. Besides, the GI50 with PC-3 is < 0.0001 µM (active); in the assay with HOP-92 it was 0.141 µM (active); in the assay on COLO 205, < 0.0001 µM (active); in the assay on SW-620, < 0.0001 µM (active); in the assay on MOLT-4, < 0.0001 µM (active); with SF-268, < 0.0001 µM (active). Further, the GI50 with SF-539 was < 0.0001 µM (active).

On to `Cn1c2ccccc2c(=NNc2cccc(C(=O)O)c2)c2ccccc21`, for which the GI50 with RXF 393 is 6.38 µM (inactive); with UO-31 it was 14.3 µM (inactive); in the assay on SK-MEL-2, 16.8 µM (inactive); with KM12 it was 23.3 µM (inactive); in the assay on DU-145, 11.9 µM (inactive); in the assay on OVCAR-4, 12.4 µM (inactive). The GI50 with OVCAR-8 is 5.77 µM (inactive); with IGROV-1 it was 17.8 µM (inactive); in the assay on 786-0 it was 9.79 µM (inactive); with NCI-H522, 5.05 µM (inactive); in the assay on HCT-116 it was 4.89 µM (inactive); with SK-MEL-5 it was 14.7 µM (inactive). Moreover, the GI50 in the assay on PC-3 is 4.92 µM (inactive); in the assay on HOP-92, 14.8 µM (inactive); in the assay on COLO 205 it was 12.2 µM (inactive); with SW-620 it was 5.64 µM (inactive); in the assay with MOLT-4 it was 3.97 µM (inactive); in the assay on SF-268, 10.9 µM (inactive). Also, the GI50 with SF-539 is 19.2 µM (inactive).

Turning to `O=c1oc2ccc3ccccc3c2cc1-c1nnc(Nc2ccccc2)s1`, the GI50 with RXF 393 is 15.8 µM (inactive); in the assay on UO-31, 21.4 µM (inactive); with SK-MEL-2 it was 18.9 µM (inactive); in the assay on KM12, 50.7 µM (inactive); with DU-145, 24.5 µM (inactive); with OVCAR-4, 20 µM (inactive). The GI50 is 16 µM (inactive) in the assay on 786-0; 1.27 µM (inactive) in the assay on A498; 0.986 µM (active) in the assay on NCI-H522; 22.5 µM (inactive) with HCT-116; 17.1 µM (inactive) in the assay on PC-3; 0.757 µM (active) with MOLT-4. Besides, in the assay with SF-268, the GI50 is 61.8 µM (inactive).

Turning to `CC(OC(C)(C)C)C1NC(=O)C(CCCCNC(=O)OC(C)(C)C)NC(=O)C(Cc2c[nH]c3ccccc23)NC(=O)C(Cc2ccccc2)NC(=O)C2(CCCC2)NC(=O)C(Cc2ccccc2)NC1=O` (stereo not given) (cyclo([Ac5c]FWK(Boc)T(tBu)F); configuration not given here), the GI50 in the assay with RXF 393 is 37.5 µM (inactive); in the assay on KM12, 29.4 µM (inactive); in the assay on DU-145 it was 50.9 µM (inactive); in the assay with OVCAR-4 it was 49.9 µM (inactive); in the assay on OVCAR-8, 50.2 µM (inactive); in the assay on IGROV-1, 16.2 µM (inactive). Further, the GI50 with 786-0 is 16 µM (inactive); with NCI-H522 it was 21.4 µM (inactive); with HCT-116 it was 33.3 µM (inactive); with SK-MEL-5, 15.9 µM (inactive); in the assay on PC-3, 26.9 µM (inactive); in the assay with HOP-92 it was 23.5 µM (inactive). The GI50 was 20.4 µM (inactive) in the assay on COLO 205; 22.9 µM (inactive) in the assay on SW-620; 7.71 µM (inactive) in the assay on MOLT-4; 16.6 µM (inactive) in the assay on SF-268; 36.9 µM (inactive) in the assay with SF-539.

As to `Cc1ccc(/C=C2\N=C(N3CCCC(CO)C3)NC2=O)cc1` (stereo not given), the GI50 in the assay on RXF 393, in the assay with UO-31, with SK-MEL-2, in the assay on KM12, with DU-145 and in the assay on OVCAR-4 was > 100 µM (inactive) in each case. Moreover, the GI50 in the assay with OVCAR-8, in the assay with IGROV-1, with 786-0, in the assay with NCI-H522, in the assay with HCT-116 and in the assay on SK-MEL-5 was > 100 µM (inactive) throughout. Further, the GI50 in the assay on PC-3, in the assay on HOP-92, with COLO 205, with SW-620, in the assay on MOLT-4 and in the assay on SF-268 was > 100 µM (inactive) throughout. The GI50 with SF-539 is > 100 µM (inactive).

As for `Cc1ccc2nc(-c3ccccc3)cc(=O)n2c1`, the GI50 in the assay on RXF 393, with KM12, with DU-145, in the assay with OVCAR-4, in the assay with OVCAR-8 and with IGROV-1 was > 100 µM (inactive) each time. Further, the GI50 in the assay on 786-0, in the assay with NCI-H522, in the assay on HCT-116, in the assay on SK-MEL-5, in the assay with PC-3 and with HOP-92 was > 100 µM (inactive) each time. Moreover, the GI50 in the assay with COLO 205, with SW-620, in the assay with MOLT-4, with SF-268 and in the assay on SF-539 was > 100 µM (inactive) throughout.
